{"source": "patent US20250262222A1", "about": "“HETEROCYCLIC COMPOUNDS, COMPOSITIONS THEREOF, AND METHODS OF TREATMENT THEREWITH” (BeiGene Switzerland GmbH, priority 2022, published 2025)", "key": {"[1]": {"test_system": "pERK1/2(THR202/TYR204) level in AsPC-1 cell line", "assay": "KRAS G12D pERK assay", "assay_type": "cell-based", "conditions": "Homo sapiens, ASPC1, 2 h, AsPC-1 cells, 2 h compound treatment, HTRF", "in_short": "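AsPC-1 (KRAS G12D) cells, 30000/well, seeded overnight, then treated 2 h with a 10-point series at 0 to 10 μM final. Lysate pERK1/2 (Thr202/Tyr204) detected by HTRF after overnight antibody incubation at room temperature; IC50 from percent inhibition versus log concentration.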"}, "[2]": {"test_system": "ERK1/2 phosphorylation in SW1990 tumors", "assay": "SW1990 PD studies", "assay_type": "in vivo, Female NCG mice", "conditions": "oral administration", "experimental": "Female NCG mice were subcutaneously implanted with 5×10^6 SW1990 cells per 200 μL PBS/matrigel in the right flank. After inoculation, when tumors reached a mean volume of approximately 350-450 mm^3 in size, mice were randomized into treatment groups. Randomized mice would receive a single dose of vehicle consisting of 0.5% MC or test compounds at various dose (e.g. 30, 50, or 100 mg/kg) by oral administration. Plasma was collected at 0.5, 2, 4, and 7 hours, and tumor was collected at 7 hours after dosing to determine exposure levels. Tumor fragments were snap frozen in homogenization tubes with liquid nitrogen and homogenized with T-PER Tissue Protein Extraction Buffer with protease and phosphatase inhibitors added fresh before use. Tumor lysates were then analyzed for ERK1/2 phosphorylation."}, "[3]": {"assay": "Gastrointestinal accumulation and toxicity, mono-basic vs dibasic G12D inhibitors (method not described)", "assay_type": "in vivo", "conditions": "compared to dibasic G12D inhibitors (e.g., Example 17)"}, "Mouse and rat PK study": {"assay": "Mouse and rat PK study", "assay_type": "in vivo, male CD-1 mice or SD-JVC rats", "conditions": "compared to dibasic G12D inhibitors (e.g., Example 17)", "experimental": "The pharmacokinetics of compounds were evaluated in male CD-1 mice or SD-JVC rats via intravenous and oral administration. For intravenous administration study, test compounds were dissolved in DMA:30% Solutol HS 15(w/v): Saline (20:20:60, by volume) and injected with a 1 mg/kg dose via tail vein. For oral administration study, test compounds were dissolved in 0.5% MC or PEG400/Phosal 50 PG/EtOH (30/60/10, by volume) and administrated to mice at 10 mg/kg or 30 mg/kg by gavage. Animals will be grouped and treated according to body weight. At the time points after dosing (5 (IV only), 15, and 30 min and 1, 2, 4, 8 and 24 h after administration), Rat blood samples will be collected from JVC, Mice will be anesthetized by isoflurane and blood samples will be collected from orbital bleeding. Blood samples will be collected into 1.5 mL EDTA.K2 coated EP tube. Approximately 50 μL blood (Mouse) and 150 μL blood (Rat) were collected at each time point and placed on ice, then centrifuge at 5600 rpm 7 min at 4° C. to obtain plasma. Plasma will be transferred into new tube and stored at −20° C. or dry ice temporary. The samples will be stored at −80° C. until ex vivo PK assay.\nPlasma concentrations were determined via the following sample processing method and measurement conditions. An aliquot of 10 μL sample was added with 200 μL IS (Terfenadine, 5 ng/mL) in ACN. […]"}}, "data": [{"smiles": "Cc1cc(N)cc(-c2nc3c4c(nc(OCC56COC(C(F)F)(C5)C6)nc4c2F)N2C[C@H]4CC[C@H](N4)[C@H]2CCO3)c1C(F)(F)F", "note": "[Example 29, 3-((6aR,7S,10R)-13-((1-(difluoromethyl)-2-oxabicyclo[2.1.1]hexan-4-yl)methoxy)-1-fluoro-5,6,6a,7,8,9,10,11-octahydro-4-oxa-3,11a,12,14,15-pentaaza-7,10-methanocyclohepta[4,5]cyclo-octa[1,2,3-de]naphthalen-2-yl)-5-methyl-4-(trifluoromethyl)aniline]", "values": [{"measurement": "IC50", "setting": "[1]", "value": 92, "unit": "nM"}, {"measurement": "oral pharmacodynamic effects", "setting": "[2]", "value": "enhanced oral pharmacodynamic effects"}]}, {"smiles": "Cc1cc(N)cc(-c2nc3c4c(nc(OCC56COC(C5)C6)nc4c2F)N2C[C@H]4CC[C@H](N4)[C@H]2CCO3)c1C(F)(F)F", "note": "[Example 27, 3-((6aR,7S,10R)-13-((2-oxabicyclo[2.1.1]hexan-4-yl)methoxy)-1-fluoro-5,6,6a,7,8,9,10,11-octahydro-4-oxa-3,11a,12,14,15-pentaaza-7,10-methanocyclohepta[4,5]cyclo-octa[1,2,3-de]naphthalen-2-yl)-5-methyl-4-(trifluoromethyl)aniline]", "values": [{"measurement": "IC50", "setting": "[1]", "value": 203, "unit": "nM"}, {"measurement": "oral pharmacodynamic effects", "setting": "[2]", "value": "enhanced oral pharmacodynamic effects"}]}, {"smiles": "Nc1cc(Cl)c(C(F)(F)F)c(-c2nc3c4c(nc(OCC56CCC(C5)OC6)nc4c2F)N2C[C@H]4CC[C@H](N4)[C@H]2CCO3)c1", "note": "[Example 41, 3-((6aR,7S,10R)-13-((2-oxabicyclo[2.2.1]heptan-4-yl)methoxy)-1-fluoro-5,6,6a,7,8,9,10,11-octahydro-4-oxa-3,11a,12,14,15-pentaaza-7,10-methanocyclohepta[4,5]cyclo-octa[1,2,3-de]naphthalen-2-yl)-5-chloro-4-(trifluoromethyl)aniline]", "values": [{"measurement": "IC50", "setting": "[1]", "value": 112, "unit": "nM"}, {"measurement": "oral pharmacodynamic effects", "setting": "[2]", "value": "enhanced oral pharmacodynamic effects"}]}, {"smiles": "Nc1cc(Cl)c(C(F)(F)F)c(-c2nc3c4c(nc(OCC56COC(C5)C6)nc4c2F)N2C[C@H]4CC[C@H](N4)C2CCO3)c1", "note": "(stereo partly drawn) [Example 23, 3-((7S,10R)-13-((2-oxabicyclo[2.1.1]hexan-4-yl)methoxy)-1-fluoro-5,6,6a,7,8,9,10,11-octahydro-4-oxa-3,11a,12,14,15-pentaaza-7,10-methanocyclohepta[4,5]cycloocta[1,2,3-de]naphthalen-2-yl)-5-chloro-4-(trifluoromethyl)aniline]", "values": [{"measurement": "IC50", "setting": "[1]", "value": 114, "unit": "nM"}, {"measurement": "gastrointestinal accumulation", "setting": "[3]", "value": "reduced gastrointestinal accumulation"}, {"measurement": "toxicity", "setting": "[3]", "value": "reduced toxicity"}, {"measurement": "oral exposure", "setting": "Mouse and rat PK study", "value": "enhanced oral exposure"}]}, {"smiles": "Nc1cc(Cl)c(C(F)(F)F)c(-c2nc3c4c(nc(OCC5(C(F)F)COC5)nc4c2F)N2C[C@H]4CC[C@H](N4)[C@H]2CCO3)c1", "note": "[Example 32, 3-chloro-5-((6aR,7S,10R)-13-((3-(difluoromethyl)oxetan-3-yl)methoxy)-1-fluoro-5,6,6a,7,8,9,10,11-octahydro-4-oxa-3,11a,12,14,15-pentaaza-7,10-methanocyclohepta[4,5]cyclo-octa[1,2,3-de]naphthalen-2-yl)-4-(trifluoromethyl)aniline]", "values": [{"measurement": "IC50", "setting": "[1]", "value": 117, "unit": "nM"}, {"measurement": "oral pharmacodynamic effects", "setting": "[2]", "value": "enhanced oral pharmacodynamic effects"}]}, {"smiles": "Nc1cc(Cl)c(C(F)(F)F)c(-c2nc3c4c(nc(OCC56CCC(CC5)OC6)nc4c2F)N2C[C@H]4CC[C@H](N4)[C@H]2CCO3)c1", "note": "[Example 40, 3-((6aR,7S,10R)-13-((2-oxabicyclo[2.2.2]octan-4-yl)methoxy)-1-fluoro-5,6,6a,7,8,9,10,11-octahydro-4-oxa-3,11a,12,14,15-pentaaza-7,10-methanocyclohepta[4,5]cyclo-octa[1,2,3-de]naphthalen-2-yl)-5-chloro-4-(trifluoromethyl)aniline]", "values": [{"measurement": "IC50", "setting": "[1]", "value": 303, "unit": "nM"}, {"measurement": "oral pharmacodynamic effects", "setting": "[2]", "value": "enhanced oral pharmacodynamic effects"}]}, {"smiles": "Nc1cc(Cl)c(C(F)(F)F)c(-c2nc3c4c(nc(OCC56COC(C(F)F)(C5)C6)nc4c2F)N2C[C@H]4CC[C@H](N4)[C@H]2CCO3)c1", "note": "[Example 35, 3-chloro-5-((6aR,7S,10R)-13-((1-(difluoromethyl)-2-oxabicyclo[2.1.1]hexan-4-yl)methoxy)-1-fluoro-5,6,6a,7,8,9,10,11-octahydro-4-oxa-3,11a,12,14,15-pentaaza-7,10-methanocyclohepta[4,5]cyclo-octa[1,2,3-de]naphthalen-2-yl)-4-(trifluoromethyl)aniline]", "values": [{"measurement": "IC50", "setting": "[1]", "value": 61, "unit": "nM"}, {"measurement": "oral pharmacodynamic effects", "setting": "[2]", "value": "enhanced oral pharmacodynamic effects"}]}]}
